# Measurements: the NIST ThermoML archive (doi:10.1021/je700139p)
# Numbers after ± are expanded uncertainties.
# Test: activity coefficient (dimensionless); of the first substance listed, at infinite dilution; xn = mol fraction of the nth substance listed
# Conditions: 101 kPa, Liquid, Chromatography, x1 = 0
SMILES,activity coefficient (333.15 K),activity coefficient (343.15 K),activity coefficient (353.15 K),activity coefficient (363.15 K),activity coefficient (373.15 K)
CCCCCCCC [octane] + O=S1(=O)CCCC1,80.7 ± 5.5,70.5 ± 4.8,61.7 ± 4.2,54.3 ± 3.7,48.6 ± 3.3
"Cc1cccc(C)c1 [1,3-dimethylbenzene] + O=S1(=O)CCCC1",5.35 ± 0.36,5.13 ± 0.35,4.98 ± 0.34,4.77 ± 0.33,4.65 ± 0.32
"Cc1ccc(C)cc1 [1,4-dimethylbenzene] + O=S1(=O)CCCC1",5.51 ± 0.38,5.25 ± 0.36,5.11 ± 0.35,4.88 ± 0.33,4.76 ± 0.32
CCc1ccccc1 [ethylbenzene] + O=S1(=O)CCCC1,4.82 ± 0.33,4.65 ± 0.32,4.48 ± 0.3,4.35 ± 0.3,4.26 ± 0.29
"Cc1ccccc1C [1,2-dimethylbenzene] + O=S1(=O)CCCC1",4.57 ± 0.31,4.39 ± 0.3,4.28 ± 0.29,4.17 ± 0.28,4.04 ± 0.28
CCCCCCCCCC [decane] + O=S1(=O)CCCC1,147 ± 10,126 ± 8.6,107 ± 7.3,92.2 ± 6.3,79.8 ± 5.5
c1ccccc1 [benzene] + O=S1(=O)CCCC1,2.32 ± 0.16,2.3 ± 0.16,2.28 ± 0.15,2.26 ± 0.15,2.25 ± 0.15
CCCCCCC [heptane] + O=S1(=O)CCCC1,60.3 ± 4.1,53.1 ± 3.6,47.6 ± 3.3,41.2 ± 2.8,38.5 ± 2.6
Cc1ccccc1 [toluene] + O=S1(=O)CCCC1,3.46 ± 0.23,3.38 ± 0.23,3.29 ± 0.22,3.23 ± 0.22,3.2 ± 0.22
